Experimental data from ChEMBL document CHEMBL1201862, “PubChem BioAssay data set” (2004).
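Method: 48-hour compound exposure of cells in 96-well plates, five concentrations, linear interpolation of endpoints. GI50: concentration for 50% inhibition of growth.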 Calls of active or inactive are those of the source. Cut-off read from the data, not from the text of the source: active = GI50 up to about 1.1 µM and inactive = higher.

Columns and labels:
Test in all cases: NCI-60 cell line screen, 48 h
UO-31 = system: UO-31
LOX IMVI = system: LOX IMVI
SK-MEL-28 = system: SK-MEL-28
KM12 = system: KM12
A498 = system: A498
IGROV-1 = system: IGROV-1
HCT-15 = system: HCT-15
OVCAR-3 = system: OVCAR-3
SF-539 = system: SF-539
SNB-75 = system: SNB-75
MDA-MB-231 = system: MDA-MB-231
SF-295 = system: SF-295
DU-145 = system: DU-145
T47D = system: T47D
PC-3 = system: PC-3
CAKI-1 = system: CAKI-1
HOP-62 = system: HOP-62
SF-268 = system: SF-268
HCT-116 = system: HCT-116
NCI-H460 = system: NCI-H460
HCC 2998 = system: HCC 2998
SK-MEL-5 = system: SK-MEL-5
SN12C = system: SN12C
UACC-62 = system: UACC-62
NCI-H23 = system: NCI-H23
BT-549 = system: BT-549
MCF7 = system: MCF7
OVCAR-8 = system: OVCAR-8
MDA-N = system: MDA-N
OVCAR-5 = system: OVCAR-5
UACC-257 = system: UACC-257
RPMI-8226 = system: RPMI-8226
HT-29 = system: HT-29
NCI/ADR-RES = system: NCI/ADR-RES
M14 = system: M14
TK-10 = system: TK-10
SK-OV-3 = system: SK-OV-3
786-0 = system: 786-0
COLO 205 = system: COLO 205
K562 = system: K562
NCI-H226 = system: NCI-H226
ACHN = system: ACHN
U-251 = system: U-251
Malme-3M = system: Malme-3M
HL-60 = system: HL-60
SW-620 = system: SW-620
Hs-578T = system: Hs-578T
NCI-H522 = system: NCI-H522
MOLT-4 = system: MOLT-4
A549 = system: A549
EKVX = system: EKVX
SK-MEL-2 = system: SK-MEL-2
SNB-19 = system: SNB-19
CCRF-CEM = system: CCRF-CEM
MDA-MB-435 = system: MDA-MB-435
OVCAR-4 = system: OVCAR-4
HOP-92 = system: HOP-92
RXF 393 = system: RXF 393

COc1ccccc1C1SCC(=O)N1c1ccc(-c2ccc(-n3c(-c4ccccc4)nc4ccccc4c3=O)cc2)cc1 (stereo not drawn)
GI50 (UO-31): 29.9 µM (inactive) | GI50 (LOX IMVI): > 100 µM (inactive) | GI50 (SK-MEL-28): > 100 µM (inactive) | GI50 (KM12): > 100 µM (inactive) | GI50 (A498): > 100 µM (inactive) | GI50 (IGROV-1): > 100 µM (inactive) | GI50 (HCT-15): > 100 µM | GI50 (OVCAR-3): > 100 µM (inactive) | GI50 (SF-539): 31 µM (inactive) | GI50 (SNB-75): > 100 µM (inactive) | GI50 (MDA-MB-231): > 100 µM (inactive) | GI50 (SF-295): > 100 µM (inactive) | GI50 (DU-145): > 100 µM (inactive) | GI50 (T47D): 91 µM (inactive) | GI50 (PC-3): > 100 µM (inactive) | GI50 (CAKI-1): > 100 µM (inactive) | GI50 (HOP-62): > 100 µM (inactive) | GI50 (SF-268): > 100 µM (inactive) | GI50 (HCT-116): > 100 µM (inactive) | GI50 (NCI-H460): > 100 µM (inactive) | GI50 (HCC 2998): > 100 µM (inactive) | GI50 (SK-MEL-5): > 100 µM (inactive) | GI50 (SN12C): > 100 µM (inactive) | GI50 (UACC-62): 84.3 µM (inactive) | GI50 (NCI-H23): > 100 µM (inactive) | GI50 (BT-549): > 100 µM (inactive) | GI50 (MCF7): > 100 µM (inactive) | GI50 (OVCAR-8): > 100 µM (inactive) | GI50 (MDA-N): > 100 µM (inactive) | GI50 (OVCAR-5): > 100 µM (inactive) | GI50 (UACC-257): > 100 µM (inactive) | GI50 (RPMI-8226): > 100 µM (inactive) | GI50 (HT-29): > 100 µM (inactive) | GI50 (NCI/ADR-RES): > 100 µM (inactive) | GI50 (M14): > 100 µM (inactive) | GI50 (TK-10): > 100 µM (inactive) | GI50 (SK-OV-3): > 100 µM (inactive) | GI50 (786-0): > 100 µM (inactive) | GI50 (COLO 205): > 100 µM (inactive) | GI50 (K562): > 100 µM (inactive) | GI50 (NCI-H226): > 100 µM (inactive) | GI50 (ACHN): > 100 µM (inactive) | GI50 (U-251): > 100 µM (inactive) | GI50 (Malme-3M): > 100 µM (inactive) | GI50 (HL-60): > 100 µM (inactive) | GI50 (SW-620): > 100 µM (inactive) | GI50 (Hs-578T): > 100 µM (inactive) | GI50 (NCI-H522): > 100 µM (inactive) | GI50 (MOLT-4): > 100 µM (inactive) | GI50 (A549): > 100 µM (inactive) | GI50 (EKVX): > 100 µM (inactive) | GI50 (SK-MEL-2): > 100 µM (inactive) | GI50 (SNB-19): > 100 µM (inactive) | GI50 (CCRF-CEM): > 100 µM (inactive) | GI50 (MDA-MB-435): > 100 µM (inactive) | GI50 (OVCAR-4): > 10 µM (inactive)

Clc1ccc(/C=C/c2nc(Cl)c(-c3ccc(Cl)cc3)c(Cl)n2)cc1
GI50 (UO-31): 13.6 µM (inactive) | GI50 (HOP-92): > 100 µM (inactive) | GI50 (LOX IMVI): 86.9 µM (inactive) | GI50 (SK-MEL-28): > 100 µM (inactive) | GI50 (KM12): > 100 µM (inactive) | GI50 (A498): 50.6 µM (inactive) | GI50 (IGROV-1): 60 µM (inactive) | GI50 (HCT-15): > 100 µM | GI50 (OVCAR-3): > 100 µM (inactive) | GI50 (SF-539): 57.7 µM (inactive) | GI50 (SNB-75): 19.3 µM (inactive) | GI50 (MDA-MB-231): 67 µM (inactive) | GI50 (SF-295): 52.1 µM (inactive) | GI50 (DU-145): 76.4 µM (inactive) | GI50 (T47D): 38.3 µM (inactive) | GI50 (PC-3): 42.6 µM (inactive) | GI50 (CAKI-1): 74.8 µM (inactive) | GI50 (HOP-62): > 100 µM (inactive) | GI50 (SF-268): > 100 µM (inactive) | GI50 (HCT-116): 46.8 µM (inactive) | GI50 (NCI-H460): 61 µM (inactive) | GI50 (SK-MEL-5): 38.8 µM (inactive) | GI50 (SN12C): 89.9 µM (inactive) | GI50 (UACC-62): > 100 µM (inactive) | GI50 (NCI-H23): 27.1 µM (inactive) | GI50 (BT-549): > 100 µM (inactive) | GI50 (MCF7): 45.5 µM (inactive) | GI50 (OVCAR-8): > 100 µM (inactive) | GI50 (MDA-N): 59.4 µM (inactive) | GI50 (OVCAR-5): > 100 µM (inactive) | GI50 (UACC-257): 39.3 µM (inactive) | GI50 (RPMI-8226): 23.8 µM (inactive) | GI50 (HT-29): 48.9 µM (inactive) | GI50 (NCI/ADR-RES): 68.2 µM (inactive) | GI50 (M14): 29.7 µM (inactive) | GI50 (TK-10): 62.5 µM (inactive) | GI50 (SK-OV-3): > 100 µM (inactive) | GI50 (786-0): 43.8 µM (inactive) | GI50 (RXF 393): 53.8 µM (inactive) | GI50 (COLO 205): > 100 µM (inactive) | GI50 (K562): 32.1 µM (inactive) | GI50 (NCI-H226): 80.9 µM (inactive) | GI50 (ACHN): 35.2 µM (inactive) | GI50 (U-251): 40.6 µM (inactive) | GI50 (Malme-3M): > 100 µM (inactive) | GI50 (HL-60): 14.3 µM (inactive) | GI50 (SW-620): 68.7 µM (inactive) | GI50 (Hs-578T): > 100 µM (inactive) | GI50 (NCI-H522): 31.5 µM (inactive) | GI50 (MOLT-4): 32.5 µM (inactive) | GI50 (A549): 37.9 µM (inactive) | GI50 (EKVX): 69.8 µM (inactive) | GI50 (SK-MEL-2): 25.6 µM (inactive) | GI50 (SNB-19): > 100 µM (inactive) | GI50 (CCRF-CEM): 20.4 µM (inactive) | GI50 (MDA-MB-435): 53.2 µM (inactive) | GI50 (OVCAR-4): 71.6 µM (inactive)
